We go through 39 compounds from patent US12091387B2, “Quinoline cGAS antagonist compounds” (IMMUNESENSOR THERAPEUTICS, INC., priority 2022, dated 2024).

As usually defined, the IC50 is the midpoint of a concentration-inhibition curve.

Test [1] addresses T1, recombinant human cGAS (aa147-522) (Homo sapiens, UniProt Q8N884).
T1 construct: recombinant human cGAS (aa147-522); His6-SUMO (N, cleaved yes); made in house; host or cells: E. coli BL21/pLys
The test is described as follows: In vitro inhibition assay of cGAS activity (KinaseGlo, ATP consumption). The class given is biochemical. Conditions: Herring testis DNA, 6.6 μM ATP, 0.1 mM GTP, 37° C. 20 minutes. The protocol: Expression and Purification of Recombinant cGAS Protein: cDNA encoding full-length or amino acids 147-520 of human cGAS was inserted into a modified pET28a vector containing an in-frame His6-SUMO tag. The E. coli strain BL21/pLys harboring the plasmid was induced with 0.5 mM IPTG at 18° C. overnight. His6-SUMO tag was removed by a SUMO protease digestion following purification of the His6-SUMO-cGAS as described previously (Sun et al, 2013, Science 339, 786).
In vitro inhibition assay of cGAS activity: A 60 μL mixture containing 20 mM Tris-Cl, pH 7.5, 5 mM MgCl2, 0.2 mg/mL BSA, 0.01 mg/mL Herring testis DNA, 6.6 μM ATP, 0.1 mM GTP, 1.5 μg/mL of recombinant human cGAS (aa147-522) and serial dilutions of a test compound in DMSO is added to a 96-well plate and incubated at 37° C. for 20 minutes. At the end of reaction, 40 μL of KinaseGlo Max (Promega) is added and chemiluminescence was measured with a luminometer. Inhibitory effect of a compound is evaluated by plotting percentage of ATP consumption against logarithm of compound concentrations. IC50 value is calculated using GraphPad Prism 8 (GraphPad Software, Inc.).
The letter codes for cGAS IC50 include: A (<2 μM); B (2-30 μM); C (>30 μM).
In general terms: Kinase-Glo reads ATP consumption through a luciferase reaction.

Test [2] relates to cGAS activity in reporter THP1 cell line. As to the kind of experiment: Cellular assay to measure cGAS activity (ISRE-Gaussia luciferase reporter THP1 cells, ISD transfection). The following applies: Homo sapiens, THP-1, 2 μg/mL ISD transfection, 16 hours, luciferase luminescence. In kind it is cell-based. The protocol:
Cellular assay to measure cGAS activity: Reporter THP1 cell line harboring a gene encoding Gaussia Luciferase under the control of 5 tandem repeats of interferon-stimulated response elements (ISRE) fused to an ISG54 minimal promoter was used to test inhibition of cGAS activity by synthetic compounds in human cells. These cells were plated on 96-well plates at 0.3×10^6/well and incubated with serial dilutions of compounds or DMSO for 5 min, followed by transfection of 2 μg/mL of ISD (Interferon Stimulatory DNA, a 45 bp DNA oligo) or mock transfected using lipofectamine 2000 (Life Technology) method, according to manufacturer's instructions. 16 hours later, 15 μL of the media from each well was transferred to a new plate, 50 μL of solution containing 50 mM Hepes-NaOH, pH 6.5, 50 mM NaCl, 10 mM EDTA, 1 μM of coeleanterazine is added to each well and luminescence is measured immediately. Fold increase in luminescence compared to mock transfection was plotted against concentrations of each compound, and IC50 is calculated using Graphpad. To evaluate the specificity of a compound, the same procedure is performed except that cells are transfected with 2 μg/mL […] or infected with Sendai Virus (SeV) at 50 Unit/mL, which are known to activate the RIG-I-MAVS pathway. A specific inhibitory compound should inhibit interferon induction by DNA but have minimal effect on poly(I:C) or Sendai virus induced interferon reporter gene expression.
The letter codes for cGAS IC50 include: A (<2 μM); B (2-10 μM); C (>10 μM).
A general note: In a reporter assay the amount or activity of a reporter protein is the signal.

Bounds are passed on as bounds.

T1 sequence (Q8N884 147-522): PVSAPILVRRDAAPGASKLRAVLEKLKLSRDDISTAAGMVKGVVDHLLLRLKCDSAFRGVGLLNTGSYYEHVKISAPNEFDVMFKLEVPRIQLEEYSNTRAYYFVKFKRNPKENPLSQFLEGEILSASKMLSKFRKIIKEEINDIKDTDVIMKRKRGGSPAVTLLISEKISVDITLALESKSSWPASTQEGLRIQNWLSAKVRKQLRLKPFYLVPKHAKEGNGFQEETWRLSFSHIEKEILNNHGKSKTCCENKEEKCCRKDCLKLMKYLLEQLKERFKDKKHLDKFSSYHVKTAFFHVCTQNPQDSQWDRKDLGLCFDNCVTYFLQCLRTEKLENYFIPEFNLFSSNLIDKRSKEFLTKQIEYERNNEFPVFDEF

In the case of `O=C(O)CCOC[C@@H]1CCCN1c1cc(-n2cncn2)c2cc(Cl)c(Br)cc2n1` [I-893], the IC50 in test [1] and in test [2] was less than 2000 nM in each case.

Regarding `O=C(O)CCOC[C@@H]1C[C@@H]2C[C@@H]2N1c1cc(-n2cncn2)c2cc(Cl)c(Br)cc2n1` [I-927], the IC50 in test [1] and in test [2] was less than 2000 nM each time.

Regarding `O=C(O)CCOC[C@H]1CCCN1c1cc(-n2cncn2)c2cc(Br)c(Cl)c(Cl)c2n1` [I-925], the IC50 in test [1] and in test [2] was less than 2000 nM throughout.

Take `O=C(O)CCOC[C@@H]1CCCN1c1cc(-c2cnsc2)c2ccc(Cl)c(Cl)c2n1` [I-906]: the IC50 in test [1] and in test [2] was less than 2000 nM throughout.

As for `O=C(O)CCOC[C@@H]1CCCN1c1cc(-c2ccnnc2)c2ccc(Cl)c(Cl)c2n1` [I-918], the IC50 in test [1] was more than 30000 nM; in test [2], more than 10000 nM.

For the compound `O=C(O)CCOC[C@@H]1CCCN1c1cc(C2=CNCC2)c2ccc(Cl)c(Cl)c2n1` [I-923], the IC50 is 2000 to 30000 nM in test [1] and more than 10000 nM in test [2].

For the compound `O=C(O)CCOC[C@@H]1CCCN1c1cc(-n2cncn2)c2cc(Cl)c(Cl)cc2n1` [I-931], the IC50 in test [1] and in test [2] was less than 2000 nM each time.

Turning to `O=C(O)CCOC[C@@H]1CCCN1c1cc(-c2cccc(O)c2)c2ccc(Cl)c(Cl)c2n1` [I-910], the figures for the IC50 in test [1] and in test [2] were more than 30000 nM and more than 10000 nM, respectively.

Regarding `O=C(O)CCOC[C@@H]1CCN(c2cc(-n3cncn3)c3cc(Cl)c(Br)cc3n2)C1` [I-935], the IC50 in test [1] and in test [2] was less than 2000 nM throughout.

As to `O=C(O)CCOC[C@@H]1C[C@@H]2C[C@@H]2N1c1cc(-n2cncn2)c2cc(Br)c(Cl)c(Cl)c2n1` [I-930], the IC50 in test [1] and in test [2] was less than 2000 nM each time.

For `O=C(O)CCOC[C@@H]1CCCN1c1cc(N2CCNCC2)c2ccc(Cl)c(Cl)c2n1` [I-920], the 50% inhibitory concentration (IC50) is more than 30000 nM in test [1] and more than 10000 nM in test [2].

On to `O=C(O)CCOC[C@@H]1CCCN1c1cc(-c2cocn2)c2ccc(Cl)c(Cl)c2n1` [I-904], for which the results for the 50% inhibitory concentration (IC50) in test [1] and in test [2] were more than 30000 nM and more than 10000 nM, respectively.

Turning to `O=C(O)CCOC[C@@H]1CCCN1c1cc(-n2ccnn2)c2ccc(Cl)c(Cl)c2n1` [I-900, (S)-3-((1-(7,8-dichloro-4-(1H-1,2,3-triazol-1-yl)quinolin-2-yl)pyrrolidin-2-yl)methoxy)propanoic acid], the IC50 in test [1] and in test [2] was less than 2000 nM throughout.

Turning to `C[C@H]1C[C@@H](COCCC(=O)O)N(c2cc(-n3cncn3)c3cc(Cl)c(Br)cc3n2)C1` [I-928], the IC50 in test [1] and in test [2] was less than 2000 nM each time.

Take `O=C(O)CCOC[C@@H]1CCCN1c1cc(-c2cnoc2)c2ccc(Cl)c(Cl)c2n1` [I-902]: the IC50 was less than 2000 nM in test [1] and 2000 to 10000 nM in test [2].

Take `O=C(O)CCOC[C@@H]1CC2(CC2)CN1c1cc(-n2cncn2)c2ccc(Cl)c(Cl)c2n1` [I-898]: the IC50 in test [1] and in test [2] was less than 2000 nM each time.

Turning to `CN1CCN(c2cc(N3CCC[C@H]3COCCC(=O)O)nc3c(Cl)c(Cl)ccc23)CC1` [I-921], the IC50 in test [1] is more than 30000 nM; in test [2], more than 10000 nM.

Consider `O=C(O)CCOC[C@@H]1CCCN1c1cc(-c2cccc(F)c2)c2ccc(Cl)c(Cl)c2n1` [I-914], for which the values for the half-inhibitory concentration (IC50) in test [1] and in test [2] were 2000 to 30000 nM and more than 10000 nM, respectively.

Take `O=C(O)CCOC[C@@H]1CCCN1c1cc(N2CCOCC2)c2ccc(Cl)c(Cl)c2n1` [I-919]: the IC50 in test [1] was more than 30000 nM; in test [2] it was more than 10000 nM.

`O=C(O)[C@@H]1[C@@H](O)CCN1c1cc(-n2cncn2)c2cc(Cl)c(Br)cc2n1` [I-934]: the values for the IC50 in test [1] and in test [2] were less than 2000 nM and more than 10000 nM, respectively.

As to `COC(=O)[C@@H]1[C@@H](O)CCN1c1cc(-n2cncn2)c2cc(Cl)c(Br)cc2n1` [I-936], the IC50 in test [1] and in test [2] was less than 2000 nM each time.

Regarding `O=C(O)CCOC[C@@H]1CCCN1c1cc(-c2cnn[nH]2)c2ccc(Cl)c(Cl)c2n1` [I-899, (S)-3-((1-(7,8-dichloro-4-(1H-1,2,3-triazol-4-yl)quinolin-2-yl)pyrrolidin-2-yl)methoxy)propanoic acid], the IC50 in test [1] and in test [2] was less than 2000 nM throughout.

On to `O=C(O)CCOC[C@@H]1CCCN1c1cc(-n2cncn2)c2cc(Br)c(Cl)c(Cl)c2n1` [I-895], for which the IC50 in test [1] and in test [2] was less than 2000 nM throughout.

As to `O=C(O)CCOC[C@@H]1CCCN1c1cc(-c2cccnc2)c2ccc(Cl)c(Cl)c2n1` [I-915], the results for the IC50 in test [1] and in test [2] were more than 30000 nM and more than 10000 nM, respectively.

As for `O=C(O)CCOC[C@H]1CCCN1c1cc(-n2cncn2)c2cc(Cl)c(Br)cc2n1` [I-924], the IC50 in test [1] is 2000 to 30000 nM; in test [2], more than 10000 nM.

In the case of `COc1ccc(-c2cc(N3CCC[C@H]3COCCC(=O)O)nc3c(Cl)c(Cl)ccc23)cc1` [I-911], the IC50 in test [1] was more than 30000 nM; in test [2] it was more than 10000 nM.

With `O=C(O)CCOC[C@@H]1CCCN1c1cc(-c2ccc(F)cc2)c2ccc(Cl)c(Cl)c2n1` [I-913], the IC50 is more than 30000 nM in test [1] and more than 10000 nM in test [2].

For `O=C(O)CCOC[C@@H]1CCCN1c1cc(C2=CCNC2)c2ccc(Cl)c(Cl)c2n1` [I-922], the IC50 in test [1] is more than 30000 nM; in test [2] it was more than 10000 nM.

In the case of `COC(=O)[C@@H]1[C@@H](O)CCN1c1cc(-n2cncn2)c2cc(Br)c(Cl)c(Cl)c2n1` [I-933], the IC50 in test [1] and in test [2] was less than 2000 nM throughout.

In the case of `O=C(O)CCOC[C@@H]1CCCN1c1cc(-c2cnco2)c2ccc(Br)cc2n1` [I-903, (S)-3-((1-(7-bromo-4-(oxazol-5-yl)quinolin-2-yl)pyrrolidin-2-yl)methoxy)propanoic acid], the IC50 in test [1] was less than 2000 nM; in test [2], 2000 to 10000 nM.

In the case of `CCN(CCOCCC(=O)O)c1cc(-n2cncn2)c2cc(Br)c(Cl)c(Cl)c2n1` [I-938], the IC50 in test [1] and in test [2] was less than 2000 nM throughout.

As to `O=C(O)CCOC[C@@H]1CCCN1c1cc(-n2cncn2)c2ccc(Cl)c(Cl)c2n1` [I-892], the 50% inhibitory concentration (IC50) in test [1] and in test [2] was less than 2000 nM in each case.

Take `O=C(O)CCOC[C@@H]1CCCN1c1cc(-c2cscn2)c2ccc(Cl)c(Cl)c2n1` [I-908]: the concentration for half-maximal inhibition (IC50) in test [1] was more than 30000 nM; in test [2] it was more than 10000 nM.

As to `O=C(O)CCOC[C@@H]1CC2(CC2)CN1c1cc(-n2cncn2)c2cc(Cl)c(Br)cc2n1` [I-896], the IC50 in test [1] and in test [2] was less than 2000 nM in each case.

With `O=C(O)CCOC[C@H]1CC2(CC2)CN1c1cc(-n2cncn2)c2cc(Br)c(Cl)c(Cl)c2n1` [I-926], the IC50 in test [1] and in test [2] was less than 2000 nM in each case.

Take `O=C(O)CCOC[C@@H]1CCN(c2cc(-n3cncn3)c3cc(Br)c(Cl)c(Cl)c3n2)C1` [I-937]: the IC50 in test [1] and in test [2] was less than 2000 nM in each case.

On to `O=C(O)CCOC[C@@H]1CCCN1c1cc(-c2cncnc2)c2ccc(Cl)c(Cl)c2n1` [I-917], for which the values for the IC50 in test [1] and in test [2] were less than 2000 nM and more than 10000 nM, respectively.

Take `O=C(O)CCOC[C@@H]1CCCN1c1cc(-c2cncs2)c2ccc(Cl)c(Cl)c2n1` [I-907]: the IC50 in test [1] and in test [2] was less than 2000 nM each time.

With `O=C(O)CCOC[C@@H]1CCCN1c1cc(-c2ncn[nH]2)c2ccc(Br)cc2n1` [I-901, (S)-3-((1-(7-bromo-4-(4H-1,2,4-triazol-3-yl)quinolin-2-yl)pyrrolidin-2-yl)methoxy)propanoic acid], the results for the IC50 in test [1] and in test [2] were 2000 to 30000 nM and more than 10000 nM, respectively.
